Assay [1] has as its system HAP1 MTAP-intact cell line. Description: SDMA in-cell western assay, HAP1 MTAP-intact. Particulars: HAP1 MTAP-intact; for IC50: Homo sapiens, HAP1, SDMA in-cell western, read-out: MTAP HAP1 intact IC50. The class given is cell-based. Set-up: MTAP HAP1 intact IC50: scale not given here. The gist of the method:
(§1)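 MTAP-null vs endogenous-MTAP HAP1 isogenic cells; in-cell western SDMA readout; IC50 per line.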

In assay [2] the target is T1, PRMT5 (Homo sapiens, UniProt O14744).
T1 construct: purchased Viva (custom protein)
T1 sequence (O14744 whole entry): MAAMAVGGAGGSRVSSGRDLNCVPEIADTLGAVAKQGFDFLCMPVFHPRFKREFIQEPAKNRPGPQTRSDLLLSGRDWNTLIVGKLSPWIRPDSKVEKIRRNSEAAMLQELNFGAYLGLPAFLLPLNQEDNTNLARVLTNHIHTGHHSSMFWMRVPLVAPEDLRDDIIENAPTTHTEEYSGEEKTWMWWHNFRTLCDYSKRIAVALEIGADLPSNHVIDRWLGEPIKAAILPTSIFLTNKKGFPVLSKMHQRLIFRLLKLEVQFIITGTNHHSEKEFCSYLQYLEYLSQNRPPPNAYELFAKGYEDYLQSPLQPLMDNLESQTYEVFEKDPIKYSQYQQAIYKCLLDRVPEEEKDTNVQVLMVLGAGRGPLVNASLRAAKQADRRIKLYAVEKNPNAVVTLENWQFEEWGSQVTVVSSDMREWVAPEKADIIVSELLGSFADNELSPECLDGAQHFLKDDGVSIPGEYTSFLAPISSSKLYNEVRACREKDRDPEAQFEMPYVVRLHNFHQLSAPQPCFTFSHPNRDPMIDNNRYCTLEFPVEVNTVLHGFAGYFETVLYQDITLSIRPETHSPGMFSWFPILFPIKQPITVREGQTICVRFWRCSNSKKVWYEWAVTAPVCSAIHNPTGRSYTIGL
T1 sequence (Q9BQA1 whole entry partner): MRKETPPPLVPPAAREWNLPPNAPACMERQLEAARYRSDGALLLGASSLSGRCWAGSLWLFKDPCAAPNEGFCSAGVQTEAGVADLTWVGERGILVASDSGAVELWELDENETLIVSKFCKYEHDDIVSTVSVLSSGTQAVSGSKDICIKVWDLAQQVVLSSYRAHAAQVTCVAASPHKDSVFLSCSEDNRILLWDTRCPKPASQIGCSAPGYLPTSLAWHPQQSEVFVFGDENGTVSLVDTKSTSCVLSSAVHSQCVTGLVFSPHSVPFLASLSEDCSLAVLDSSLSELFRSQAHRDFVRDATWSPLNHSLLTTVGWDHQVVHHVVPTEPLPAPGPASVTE
The assay can be described thus: PRMT5 biochemical IC50 assay with SAM as cofactor. Particulars: PRMT5, SAM as cofactor; read-out: SAM IC50.

For assay [3], the target named is T1, PRMT5. Description: PRMT5 biochemical IC50 assay with no cofactor. Particulars: PRMT5, no cofactor; read-out: No Cofactor/rel IC50. An excerpt: Table 1 indicates IC50 values (μM) against PRMT5 for exemplary compounds in the presence of SAM as cofactor, with no cofactor, and with MTA as cofactor, respectively (columns 4-6). […] Ki values can be calculated from the IC50 values as described in the Examples section. As detailed in the Examples section, for the assay performed in the presence of SAM, IC50=Ki×1.5 (Ki=IC50/1.5).

The subject of assay [4] is HAP1 MTAP-deleted cell line. The assay can be described thus: SDMA in-cell western assay, HAP1 MTAP-deleted. The class given is cell-based. Particulars: for IC50: Homo sapiens, HAP1, SDMA in-cell western, HAP1 MTAP-deleted, read-out: HAP1 MTAP deleted IC50; for MTAP intact/deleted ratio: IC50 ratio HAP1 MTAP-intact / HAP1 MTAP-deleted, SDMA in-cell western. An outline of the steps: as §1

The target of assay [5] is T1, PRMT5. The assay can be described thus: PRMT5 biochemical IC50 assay with MTA as cofactor. Particulars: PRMT5, MTA as cofactor; read-out: MTA IC50.
Assay [6] relates to HAP1 MTAP-deleted cell line. Description: Viability assay, MTAP-deleted cell line. Particulars: Homo sapiens, HAP1, viability assay, HAP1 MTAP-deleted; read-out: HAP1 MTAP deleted viability. The class given is cell-based. From the text:
Table 1 additionally indicates IC50 values in a viability assay for the MTAP-deleted cell line (column 10), indicating the effect of treatment with compound on cell survival.

14 compounds from patent US11999727B2 (Tango Therapeutics, Inc., priority 2020, dated 2024) can be followed below.

Each structure is given as a SMILES string.

With `Cc1ncc(NC(=O)C(=O)N2C[C@H](C)CC[C@H]2c2ccc3c(c2)CCC(=O)N3)cc1C(F)F` (racemic) [Compound 803, rac-N-[5-(Difluoromethyl)-6-methyl-3-pyridyl]-2-[(2S,5R)-5-methyl-2-(2-oxo-3,4-dihydro-1H-quinolin-6-yl)-1-piperidyl]-2-oxo-acetamide], the IC50 was over 1 µM in assay [1]; 0.05 to 0.5 µM in assay [2]; 0.05 to 0.5 µM in assay [3]; under 0.1 µM in assay [4]; under 0.05 µM in assay [5]; under 1 µM in assay [6]. Besides, in assay [4], the MTAP intact/deleted ratio result is “A (an IC50 ratio greater than or equal to 10 fold)”.

On to `Cc1cc(NC(=O)C(=O)N2C[C@H](C)CC[C@H]2[C@H]2CC3(C[C@H](C(N)=O)C3)C2)cnc1N` (mixture of isomers) [Compound 812, 6-(1-(2-((6-amino-5-methylpyridin-3-yl)amino)-2-oxoacetyl)-5-methylpiperidin-2-yl)spiro[3.3]heptane-2-carboxamide], for which the IC50 is over 1 µM in assay [1]; over 0.5 µM in assay [2]; over 0.5 µM in assay [3]; over 1 µM in assay [4]; 0.05 to 0.5 µM in assay [5]; over 10 µM in assay [6]. Also, the MTAP intact/deleted ratio result in assay [4] is “C (an IC50 ratio of less than 3 fold)”.

As to `CNC(=O)N1CCCC([C@@H]2CC[C@@H](C)CN2C(=O)C(=O)Nc2cnc(N)c(C)c2)C1` (mixture of isomers) [Compound 814, 1-(2-((6-amino-5-methylpyridin-3-yl)amino)-2-oxoacetyl)-N,5-dimethyl-[2,3′-bipiperidine]-1′-carboxamide], the IC50 is over 1 µM in assay [1]; 0.05 to 0.5 µM in assay [2]; 0.05 to 0.5 µM in assay [3]; 0.1 to 1 µM in assay [4]; 0.05 to 0.5 µM in assay [5]; over 10 µM in assay [6]. Besides, the MTAP intact/deleted ratio result in assay [4] is recorded as “A (an IC50 ratio greater than or equal to 10 fold)”.

On to `Cc1cc(NC(=O)C(=O)N2C[C@H](C)CC[C@H]2c2cc3cn[nH]c3s2)cnc1N` (racemic) [Compound 815, N-(6-amino-5-methylpyridin-3-yl)-2-(5-methyl-2-(1H-thieno[2,3-c]pyrazol-5-yl)piperidin-1-yl)-2-oxoacetamide], for which the IC50 in assay [1] was 0.1 to 1 µM; in assay [2] it was 0.05 to 0.5 µM; in assay [3], 0.05 to 0.5 µM; in assay [4], under 0.1 µM; in assay [5], under 0.05 µM; in assay [6], under 1 µM. In assay [4], the MTAP intact/deleted ratio result is recorded as “A* (an IC50 ratio greater than or equal to 10 fold)”.

Regarding `C[C@@H]1CC[C@@H](c2ccc(F)cc2)N(C(=O)C(=O)Nc2cnc(OC(F)(F)F)c(C(N)=O)c2)C1` (racemic) [Compound 818, rac 5-[[2-[(2R,5S)-2-(4-fluorophenyl)-5-methyl-1-piperidyl]-2-oxo-acetyl]amino]-2-(trifluoromethoxy)pyridine-3-carboxamide], the IC50 is over 1 µM in assay [1]; 0.05 to 0.5 µM in assay [2]; 0.05 to 0.5 µM in assay [3]; 0.1 to 1 µM in assay [4]; 0.05 to 0.5 µM in assay [5]; over 10 µM in assay [6]. Moreover, the MTAP intact/deleted ratio result in assay [4] is “A (an IC50 ratio greater than or equal to 10 fold)”.

With `CNc1nc2cc([C@@H]3CC[C@@H](C)CN3C(=O)C(=O)Nc3cnc(C)c(C)c3)ccc2s1` (racemic) [Compound 828, N-(5,6-dimethyl-3-pyridyl)-2-[(2R,5S)-5-methyl-2-[2-(methylamino)-1,3-benzothiazol-5-yl]-1-piperidyl]-2-oxo-acetamide], the IC50 in assay [1] was over 1 µM; in assay [2], 0.05 to 0.5 µM; in assay [3], 0.05 to 0.5 µM; in assay [4] it was under 0.1 µM; in assay [5], 0.05 to 0.5 µM; in assay [6] it was 1 to 10 µM. In addition, the MTAP intact/deleted ratio entry in assay [4] was “A (an IC50 ratio greater than or equal to 10 fold)”.

Regarding `CC(=O)N[C@H]1CCN(C(=O)C(=O)Nc2cnc(N)c(C)c2)[C@@H](c2ccccc2)C1` (racemic) [Compound 831, 2-[(2R,4S)-4-acetamido-2-phenyl-1-piperidyl]-N-(6-amino-5-methyl-3-pyridyl)-2-oxo-acetamide], the IC50 in assay [1] was over 1 µM; in assay [2], over 0.5 µM; in assay [3] it was over 0.5 µM; in assay [4] it was over 1 µM; in assay [5], 0.05 to 0.5 µM; in assay [6] it was over 10 µM. In assay [4], the MTAP intact/deleted ratio result is listed as “B (an IC50 ratio greater than or equal to 3 fold but lower than 10 fold)”.

For the compound `C[C@@H]1CN(C(=O)C(=O)Nc2cncc(C(N)=O)c2)[C@@H](c2ccc(F)cc2)C(F)(F)C1` (racemic) [Compound 836, 5-[[2-[(2S,5S)-3,3-difluoro-2-(4-fluorophenyl)-5-methyl-1-piperidyl]-2-oxo-acetyl]amino]pyridine-3-carboxamide], the “MTAP HAP1 intact IC50” value in assay [1] (SDMA in-cell western) is listed as “C*”. The IC50 in assay [2] was 0.05 to 0.5 µM; in assay [3], 0.05 to 0.5 µM; in assay [4], 0.1 to 1 µM; in assay [5], under 0.05 µM; in assay [6], 1 to 10 µM. Moreover, the MTAP intact/deleted ratio entry in assay [4] is on record as “A (an IC50 ratio greater than or equal to 10 fold)”.

As for `Cc1cc(NC(=O)C(=O)N2CC[C@@H](C(=O)C(C)C)C[C@H]2c2ccc3c(c2)CCC(=O)N3)cnc1N` (racemic) [Compound 853, N-(6-amino-5-methyl-3-pyridyl)-2-[(2S,4R)-4-(2-methylpropanoyl)-2-(2-oxo-3,4-dihydro-1H-quinolin-6-yl)-1-piperidyl]-2-oxo-acetamide], the IC50 was over 1 µM in assay [1]; 0.05 to 0.5 µM in assay [2]; 0.05 to 0.5 µM in assay [3]; 0.1 to 1 µM in assay [4]; 0.05 to 0.5 µM in assay [5]; 1 to 10 µM in assay [6]. The MTAP intact/deleted ratio result in assay [4] is recorded as “A (an IC50 ratio greater than or equal to 10 fold)”.

Turning to `Cc1cc(NC(=O)C(=O)N2CCC(C(=O)C(C)C)C[C@H]2c2ccc3c(c2)CCC(=O)N3)cnc1N` (mixture of isomers) [Compound 854, N-(6-Amino-5-methyl-3-pyridyl)-2-[(2S)-4-(2-methylpropanoyl)-2-(2-oxo-3,4-dihydro-1H-quinolin-6-yl)-1-piperidyl]-2-oxo-acetamide], the IC50 in assay [1] was over 1 µM; in assay [2], 0.05 to 0.5 µM; in assay [3], 0.05 to 0.5 µM; in assay [4], 0.1 to 1 µM; in assay [5] it was 0.05 to 0.5 µM; in assay [6], 1 to 10 µM. In addition, in assay [4], the MTAP intact/deleted ratio result is on record as “A (an IC50 ratio greater than or equal to 10 fold)”.

On to `Cc1cc(NC(=O)C(=O)N2C[C@H](C)CC[C@H]2c2ccc3sc(C(F)(F)F)nc3c2)cnc1N` (racemic) [Compound 861, rac-N-(6-Amino-5-methyl-3-pyridyl)-2-[(2R,5S)-5-methyl-2-[2-(trifluoromethyl)-1,3-benzothiazol-5-yl]-1-piperidyl]-2-oxo-acetamide], for which the IC50 in assay [1] is 0.1 to 1 µM; in assay [2], 0.05 to 0.5 µM; in assay [3], 0.05 to 0.5 µM; in assay [4], under 0.1 µM; in assay [5] it was 0.05 to 0.5 µM; in assay [6], under 1 µM. Besides, the MTAP intact/deleted ratio entry in assay [4] was “A (an IC50 ratio greater than or equal to 10 fold)”.

`C[C@@H]1CC[C@@H](c2ccc(F)cc2)N(C(=O)C(=O)Nc2cnc(N)c(C(F)F)c2)C1` (racemic) [Compound 867, N-[6-amino-5-(difluoromethyl)-3-pyridyl]-2-[(2R,5S)-2-(4-fluorophenyl)-5-methyl-1-piperidyl]-2-oxo-acetamide]: the IC50 in assay [1] is over 1 µM; in assay [2], 0.05 to 0.5 µM; in assay [3], 0.05 to 0.5 µM; in assay [4], 0.1 to 1 µM; in assay [5], 0.05 to 0.5 µM; in assay [6], 1 to 10 µM. In addition, the MTAP intact/deleted ratio result in assay [4] is reported as “A (an IC50 ratio greater than or equal to 10 fold)”.

Regarding `COc1ncc(NC(=O)C(=O)N2C[C@@H](C)CC[C@@H]2c2ccc3c(c2)OCCN3)cc1C(N)=O` (racemic) [Compound 869, 5-[[2-[(2R,5S)-2-(3,4-dihydro-2H-1,4-benzoxazin-7-yl)-5-methyl-1-piperidyl]-2-oxo-acetyl]amino]-2-methoxy-pyridine-3-carboxamide], the IC50 is over 1 µM in assay [1]; 0.05 to 0.5 µM in assay [2]; 0.05 to 0.5 µM in assay [3]; under 0.1 µM in assay [4]; 0.05 to 0.5 µM in assay [5]; under 1 µM in assay [6]. Further, the MTAP intact/deleted ratio result in assay [4] is recorded as “A (an IC50 ratio greater than or equal to 10 fold)”.

Turning to `CCc1cc(NC(=O)C(=O)N2C[C@@H](C)CC[C@@H]2c2ccc3c(c2)OCCN3)cnc1N` (racemic) [Compound 870, N-(6-amino-5-ethyl-3-pyridyl)-2-[(2R,5S)-2-(3,4-dihydro-2H-1,4-benzoxazin-7-yl)-5-methyl-1-piperidyl]-2-oxo-acetamide], the IC50 in assay [1] was over 1 µM; in assay [2], 0.05 to 0.5 µM; in assay [3], 0.05 to 0.5 µM; in assay [4], under 0.1 µM; in assay [5], 0.05 to 0.5 µM; in assay [6], under 1 µM. Besides, the MTAP intact/deleted ratio result in assay [4] is reported as “A (an IC50 ratio greater than or equal to 10 fold)”.
